In PMC7201279, “Structures of substrate- and product-bound forms of a multi-domain copper nitrite reductase shed light on the role of domain tethering in protein complexes” (IUCrJ, 2020):

Tests used:
Hd 1NES1NiR = biological target: T1, Hd 1NES1NiR (Hyphomicrobium denitrificans, UniProt N0B9M5); test: X-ray crystal structure (nitrite-soaked crystal); assay type: binding; conditions: 100 mM NaNO2 soak, pH 5.3; catalytic T2Cu site, side-on, two of three monomers; third monomer holds NO
T1 construct: gene HYPDE_25578; N-terminal cupredoxin-tethered three-domain CuNiR; predicted signal peptide removed; 6xHis-tag cut with TEV; E. coli BL21(DE3), pET-26b(+); Cu-loaded; hexamer (dimer of trimers)
T1 sequence (N0B9M5 38-486): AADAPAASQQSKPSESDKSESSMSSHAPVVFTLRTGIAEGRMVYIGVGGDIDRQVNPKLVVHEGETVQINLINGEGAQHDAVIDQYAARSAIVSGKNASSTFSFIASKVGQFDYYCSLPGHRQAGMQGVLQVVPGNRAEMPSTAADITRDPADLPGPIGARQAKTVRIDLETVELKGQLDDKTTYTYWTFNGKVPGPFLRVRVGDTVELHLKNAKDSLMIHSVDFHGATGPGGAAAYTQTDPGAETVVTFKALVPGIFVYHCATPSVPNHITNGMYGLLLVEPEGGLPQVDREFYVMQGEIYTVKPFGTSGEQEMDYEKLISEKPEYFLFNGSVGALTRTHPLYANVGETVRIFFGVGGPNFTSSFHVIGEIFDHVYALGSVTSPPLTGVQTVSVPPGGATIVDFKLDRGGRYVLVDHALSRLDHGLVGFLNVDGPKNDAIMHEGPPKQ

[1] = biological target: N-terminal cupredoxin-tethered three-domain copper-containing nitrite reductase from Hyphomicrobium denitrificans strain 1NES1 (Hyphomicrobium denitrificans strain 1NES1); test: SEC; HiLoad 16/600 Superdex 200 pg, 100 mM Tris-HCl pH 8.0, 500 mM NaCl, 10% (v/v) glycerol, 1.0 ml/min; mass estimated from a calibration curve of marker proteins

Row | stoichiometry N [1] | Compound | X-ray crystal structure (nitrite-soaked crystal) (Hd 1NES1NiR)
1 | – | O=NO [NO2, nitrite] | The NO2 ^− is bound to the T2Cu in a side-on conformation
2 | 6 | N-terminal cupredoxin-tethered three-domain copper-containing nitrite reductase from Hyphomicrobium denitrificans strain 1NES1 (enzyme) | –
